Source: patent US8080552B2, “Pyrimidyl derivatives as protein kinase inhibitors” (Hoffmann-LA Roche Inc., priority 2006, dated 2011)

Tests used:
HCT 116 cells = assay: CellTiter-Glo assay in HCT 116 cells; format: cell-based; conditions: 120 h; HCT 116 human colon carcinoma cells, 5 days incubation, cell viability (ATP luminescence)
From the text: CellTiter-Glo™ Assay in HCT 116 Cells:
The CellTiter-Glo™ Luminescent Cell Viability Assay (Promega) is a homogeneous method of determining the number of viable cells in culture based on quantitation of the ATP present, which signals the presence of metabolically active cells.
HCT 116 cells (human colon carcinoma, ATCC-No. CCl-247) were cultivated in RPMI 1640 medium with GlutaMAX™ I (Invitrogen, Cat-No. 61870-010), 5% Fetal Calf Serum (FCS, Sigma Cat-No. F4135 (FBS)); 100 Units/ml penicillin/100 μg/ml streptomycin (=Pen/Strep from Invitrogen Cat. No. 15140). For the assay the cells were seeded in 384 well plates, 1000 cells per well, in the same medium. The next day the test compounds were added in various concentrations ranging from 30 μM to 0.0015 μM (10 concentrations, 1:3 diluted). After 5 days the CellTiter-Glo™ assay was done according to the instructions of the manufacturer (CellTiter-Glo™ Luminescent Cell Viability Assay, from Promega). In brief: the cell-plate was equilibrated to room temperature for approximately 30 minutes and than the CellTiter-Glo™ reagent was added. The contents were carefully mixed for 15 minutes to induce cell lysis. After 45 minutes the luminescent signal was measured in Victor 2, (scanning multiwell spectrophotometer, Wallac).
• Medium: RPMI 1640 with GlutaMAX™ I (Invitrogen, Cat-Nr. 61870), 5% FCS (Sigma Cat.-No. F4135), Pen/Strep (Invitrogen, Cat No. 15140). • HCT116 (ATCC-No. CCl-247): 1000 cells in 60 μl per well of 384 well plate (Greiner 781098, μClear-plate white) • After seeding incubate plates 24 h at 37° C., 5% CO2 2nd. Day: Induction (Treatment with Compounds, 10 Concentrations):
In order to achieve a final concentration of 30 μM as highest concentration 3.5 μl of 10 mM compound stock solution were added directly to 163 μl media. Then step e) of the dilution procedure described below, was followed.

VEGF-induced HUVEC cells = assay: CellTiter-Glo assay in VEGF-induced HUVEC cells; format: cell-based; conditions: Homo sapiens; Table 2; VEGF-induced (20 ng/ml) HUVEC cells, 72 hours, cell viability (ATP luminescence); read-out: IC50 HCT 116
Procedure: CellTiter-Glo™ Assay in VEGF-Induced HUVEC Cells:
HUVEC-c (Human Umbilical Vein Endothelial Cells, from Promocell Cat-No. C-12200) cells were trypsinized, spinned down and plated in 384-well plates at 1500 cells per well in 60 μl endothelial basal medium (EBM-2 from Promocell, Cat-No. C-22211) with 0.5% Fetal Calf Serum (FCS, Sigma Cat-No. F4135 (FBS)). Cells were incubated overnight at 37° C., and the next day, test compounds (stock solution 140 μmol/l in medium with 4.2% dimethylsulfoxide (DMSO)) were added in 5 μl medium over a final concentration range of 10 μmol/l to 0.5 nmol/l and 0.3% DMSO. Compounds were tested in triplicates. After 2 hrs 5 μl VEGF (VEGF 165, R&D Systems, Cat-No. 293-VE-010, stock solution 280 ng/ml in medium) was added to a final concentration of 20 ng/ml. Cells were incubated for 72 hours at 37° C. in medium. Cell number was quantitated using CellTiter-Glo™ Luminescent Cell Viability Assay (from Promega) according to the instructions of the supplier. This assay measures the number of viable cells per well by measurement of luminescent signal based on amount of cellular ATP. IC50 are determined using a non-linear curve fit (XLfit software (ID Business Solution Ltd., Guilford, Surrey, UK)) (see also CellTiter-Glo™ assay in HCT 116 cells above).

Q: `CC1(C)CNc2cc(NC(=O)Nc3ccc(Oc4ccnc(NCCCO)n4)cc3)ccc21` [Example 29, 1-(3,3-Dimethyl-2,3-dihydro-1H-indol-6-yl)-3-{4-[2-(3-hydroxy-propylamino)-pyrimidin-4-yloxy]-phenyl}-urea] was tested. Which IC50 (HCT 116 cells) did it give?
A: 300 to 10000 nM

Q: What about the IC50 (VEGF-induced HUVEC cells) of the same molecule?
A: 5 to 750 nM
